Reference: ChEMBL document CHEMBL1201862, “PubChem BioAssay data set” (2004)
Counter-ions that a name gives are not always drawn.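 Briefly, cells in 96-well plates were exposed to five compound concentrations for 48 h, and endpoints were estimated by linear interpolation. GI50 = concentration required for 50% inhibition of growth.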 Active and inactive are the calls of the source. Cut-off read from the data, not from the text of the source: active = GI50 up to about 1.1 µM and inactive = higher.

Legend:
Assay in all cases: NCI-60 cell line screen, 48 h
[1] = system: A498
[2] = system: COLO 205
[3] = system: DLD-1
[4] = system: HOP-92
[5] = system: IGROV-1
[6] = system: LOX IMVI
[7] = system: Malme-3M
[8] = system: NCI-H226
[9] = system: NCI-H23
[10] = system: OVCAR-4
[11] = system: OVCAR-5
[12] = system: OVCAR-8
[13] = system: RXF 393
[14] = system: SK-MEL-5
[15] = system: SK-OV-3
[16] = system: SW-620
[17] = system: UACC-62
[18] = system: BT-549
[19] = system: Hs-578T
[20] = system: NCI/ADR-RES

Measured: GI50

CNC(=O)CN(CC(N)=O)C(N)=O
inactive: [1] > 100 µM | [2] > 100 µM | [3] > 100 µM | [4] > 100 µM | [5] > 100 µM | [6] > 100 µM | [7] > 100 µM | [8] > 100 µM | [9] > 100 µM | [10] > 100 µM | [11] > 100 µM | [12] > 100 µM | [13] > 100 µM | [14] > 100 µM | [15] > 100 µM | [16] > 100 µM | [17] > 100 µM

CCOC(=O)C12CN(C34CC5CC(CC(C5)C3)C4)CC(C(=O)OCC)(C1=O)C(c1ccccc1)OC2c1ccccc1 (stereo unspecified)
inactive: [1] > 100 µM | [2] > 100 µM | [3] > 100 µM | [4] 2.04 µM | [5] > 100 µM | [6] 3.54 µM | [7] > 100 µM | [8] 89.7 µM | [9] 47.4 µM | [10] 23 µM | [11] > 100 µM | [12] > 100 µM | [13] 19.4 µM | [14] 94.8 µM | [15] > 100 µM | [16] > 100 µM | [17] > 100 µM

CN(C)CCCN1CCc2c([nH]c3ccccc23)C1c1cccnc1 (stereo unspecified)
inactive: [1] > 100 µM | [2] > 100 µM | [3] > 100 µM | [4] 33.8 µM | [5] > 100 µM | [6] > 100 µM | [7] > 100 µM | [8] > 100 µM | [9] > 100 µM | [10] > 100 µM | [11] > 100 µM | [12] > 100 µM | [13] > 100 µM | [14] > 100 µM | [15] > 100 µM | [16] > 100 µM | [17] > 100 µM

NC(=S)N1N=C2c3ccccc3CC[C@@H]2[C@@H]1c1ccccc1
inactive: [1] 13.2 µM | [2] 3.72 µM | [3] 6.5 µM | [4] 11.2 µM | [5] 12.6 µM | [6] 5.86 µM | [7] 5.4 µM | [8] 4.65 µM | [9] 4.68 µM | [10] 23.8 µM | [11] 24.3 µM | [12] 9.75 µM | [13] 4.95 µM | [14] 3.82 µM | [15] 9.73 µM | [16] 3.84 µM | [17] 4.74 µM

NS(=O)(=O)c1ccccc1C(=O)N/N=C(\c1nc2ccc([N+](=O)[O-])cc2[nH]c1=O)C(O)c1ccc([N+](=O)[O-])cc1 (stereo unspecified)
inactive: [1] > 100 µM | [2] > 100 µM | [3] > 100 µM | [4] > 100 µM | [5] > 100 µM | [6] 84.1 µM | [7] > 100 µM | [8] > 100 µM | [9] > 100 µM | [10] > 100 µM | [11] > 100 µM | [12] > 100 µM | [13] > 100 µM | [14] 44.4 µM | [15] > 100 µM | [16] > 100 µM | [17] 52.2 µM

CC(=O)OCCOCBr
inactive: [1] > 100 µM | [2] > 100 µM | [3] > 100 µM | [4] > 100 µM | [5] > 100 µM | [6] > 100 µM | [7] > 100 µM | [8] > 100 µM | [10] > 100 µM | [11] > 100 µM | [12] > 100 µM | [13] > 100 µM | [14] > 100 µM | [15] > 100 µM | [16] > 100 µM | [17] > 100 µM

CCOC(=O)CC(=O)Sc1ccccc1
inactive: [1] 15.8 µM | [2] 25.9 µM | [3] 20 µM | [4] 27.5 µM | [5] 12.5 µM | [6] 12.8 µM | [7] 25.6 µM | [8] 27.2 µM | [9] 24.5 µM | [10] 37.7 µM | [11] 36.4 µM | [12] 16.9 µM | [13] 10.3 µM | [14] 17.3 µM | [15] 24.5 µM | [16] 19.1 µM | [17] 16 µM

O=C1C2C=CC(n3[nH]c(=O)n(Cc4ccccc4)c3=O)CC2C(=O)N1c1ccc(Br)cc1 (stereo unspecified)
inactive: [1] 56.8 µM | [2] > 100 µM | [3] > 100 µM | [4] > 100 µM | [5] > 100 µM | [6] > 100 µM | [7] > 100 µM | [8] > 100 µM | [9] > 100 µM | [10] > 100 µM | [11] > 100 µM | [12] > 100 µM | [13] > 100 µM | [14] > 100 µM | [15] > 100 µM | [16] > 100 µM | [17] > 100 µM

CCCCCOCC(O)CO (stereo unspecified)
inactive: [1] > 100 µM | [2] > 100 µM | [3] > 100 µM | [4] > 100 µM | [5] > 100 µM | [6] > 100 µM | [7] > 100 µM | [8] > 100 µM | [9] > 100 µM | [10] > 100 µM | [11] > 100 µM | [12] > 100 µM | [13] > 100 µM | [14] > 100 µM | [16] > 100 µM | [17] > 100 µM

COC(=O)/C=C/c1c(CC=C(C)C)ncn1C
inactive: [1] > 84.1 µM | [2] 20.9 µM | [3] 29.8 µM | [4] 78.7 µM | [5] > 100 µM | [6] 35.7 µM | [7] > 100 µM | [8] > 38.5 µM | [9] 37.7 µM | [10] 84.9 µM | [11] > 100 µM | [12] 40.2 µM | [13] 22.5 µM | [14] 22.1 µM | [15] 47.9 µM | [16] 6.79 µM | [17] 16.6 µM

O=C(CC1(O)C(=O)Nc2ccccc21)c1ccc(Cl)cc1Cl (stereo unspecified)
inactive: [1] > 100 µM | [2] > 100 µM | [3] > 100 µM | [4] > 100 µM | [5] > 100 µM | [6] > 100 µM | [7] > 100 µM | [8] 71.6 µM | [9] > 100 µM | [10] > 100 µM | [11] > 100 µM | [12] > 100 µM | [13] > 100 µM | [14] > 100 µM | [15] > 100 µM | [16] > 100 µM | [17] > 100 µM

C=C(CN(C)C)C(=O)c1ccccc1Cl
inactive: [1] 36.8 µM | [2] 13.9 µM | [3] 17.3 µM | [4] 17.1 µM | [5] > 47 µM | [6] 17.8 µM | [7] 16.2 µM | [8] > 67.3 µM | [9] 22.9 µM | [10] 20.4 µM | [11] > 43 µM | [12] 18.3 µM | [13] 15.4 µM | [14] 24.2 µM | [15] > 100 µM | [16] 13.3 µM | [17] 18.3 µM

O=C(Nc1ccccc1-c1nn(C(=S)Nc2ccccc2)c(=S)n(C(=S)Nc2ccccc2)c1=O)C(F)(F)F
inactive: [1] 22.1 µM | [2] 17.5 µM | [3] 24.8 µM | [4] 12.8 µM | [5] 21.5 µM | [6] 19.8 µM | [7] 30.5 µM | [8] 17.2 µM | [9] 15.5 µM | [10] 17.1 µM | [11] 49.9 µM | [12] 23.9 µM | [13] 34 µM | [14] 11.7 µM | [15] > 87.3 µM | [16] 23.9 µM | [17] 17.3 µM

O=c1[nH]c(=O)n(C2OC(CO)C(O)C2O)cc1OCC(F)(F)F (stereo unspecified)
inactive: [1] > 100 µM | [2] > 100 µM | [3] > 100 µM | [4] > 100 µM | [5] > 100 µM | [6] > 100 µM | [7] > 100 µM | [8] > 100 µM | [9] > 100 µM | [10] > 100 µM | [11] > 100 µM | [12] > 100 µM | [13] > 100 µM | [14] > 100 µM | [15] > 100 µM | [16] > 100 µM | [17] > 100 µM

CC(=O)OC(C[C@H](C)[C@@H]1CC[C@]2(C)C3=CCC4C(C)(C)C(=O)CC[C@]4(C)C3CCC12C)C1OC1(C)C (stereo partly specified)
inactive: [1] 17.1 µM | [2] 19.9 µM | [3] 29.7 µM | [4] 11.9 µM | [5] 21.9 µM | [6] 27.9 µM | [7] 25.1 µM | [8] 13.6 µM | [9] 20.5 µM | [10] 28 µM | [11] 16.7 µM | [12] 28.8 µM | [13] 15.1 µM | [15] 13 µM | [16] 34.1 µM | [17] 23.4 µM

N[C@@H](Cc1ccc(N(CCCl)CCCl)cc1)C(=O)O [MELPHALAN HYDROCHLORIDE]
inactive: [1] 99.1 µM | [18] 38 µM | [2] 43.3 µM | [3] 47 µM | [4] 36.8 µM | [19] 51.8 µM | [6] 20.3 µM | [7] 23.8 µM | [8] 49.9 µM | [9] 23 µM | [20] 40.7 µM | [10] 40 µM | [11] 47.4 µM | [12] 35.2 µM | [13] 28.9 µM | [14] 38.3 µM | [15] 32 µM | [16] 33.6 µM | [17] 11.2 µM
